Values of other authors in patent publication US20190358240A1, “HIV TREATMENT FORMULATION OF ATAZANAVIR AND COBICISTAT” (BRISTOL-MYERS SQUIBB COMPANY, priority 2013, published 2019).

Conditions: human, in vivo

Accumulation at steady state: 2-3 fold
Time to steady state: 4 to 8 days
Tmax: ~2.5 h
SMILES: COC(=O)N[C@H](C(=O)N[C@@H](Cc1ccccc1)[C@@H](O)CN(Cc1ccc(-c2ccccn2)cc1)NC(=O)[C@@H](NC(=O)OC)C(C)(C)C)C(C)(C)C [Atazanavir, methyl N-[(1S)-1-{[(2S,3S)-3-hydroxy-4-[(2S)-2-[(methoxycarbonyl)amino]-3,3-dimethyl-N′-{[4-(pyridin-2-yl)phenyl]methyl}butanehydrazido]-1-phenylbutan-2-yl]carbamoyl}-2,2-dimethylpropyl]carbamate]
